Results from patent publication US20130236898A1, “Anaplasma FAMILY MEMBERS CAUSE A NUMBER OF BLOOD-BORNE DISEASES” (priority 2012, published 2013).

How the values were obtained:
HGA agent = settings: reported by Klein et al., Antimicrob. Agents and Chemother. 1997; cited from earlier work
[1] = tested on: acute lymphocytic leukemia (ALL); experiment: Rifampin treatment of Patient two, end stage marrow failure; type: in vivo, human; settings: person, ALL recurrence after marrow transplant, no other treatment given
Text: No other treatment was available or given. After 2 months of rapid improvement, during which they regained the ability to walk and was discharged from the hospital, they succumbed to an acute apparently unrecognized cytomegalovirus infection.

[2] = tested on: acute myelogenous leukemia (AML); experiment: Rifampin treatment of Patient one; type: in vivo, human
Description: This was a child with acute myelogenous leukemia (AML), who had blood counts of less than 2000 platelets and less than 300 white cells, persisting for 3 months. They were treated with Rifampin and on day 11 […] white cell count increased to 21,000, with 75% blasts.

[3] = tested on: intracellular organisms in the genus of Ehrlich/Anaplasma; settings: cited from earlier work

Molecule	activity against the HGA agent (HGA agent)	other results
CO[C@H]1/C=C/O[C@@]2(C)Oc3c(C)c(O)c4c(c3C2=O)C2=NC3(CCN(CC(C)C)CC3)NC2=C(NC(=O)/C(C)=C\C=C\[C@H](C)[C@H](O)[C@@H](C)[C@@H](O)[C@@H](C)[C@H](OC(C)=O)[C@@H]1C)C4=O [rifabutin]	most active, and bactericidal	–
Rifampicin [Rifampin]	most active, and bactericidal	clinical outcome [1]: remarkable though temporary recovery; platelets ([2]; after treatment, less than 2000 platelets before): increased less rapidly; blasts ([2]; day 11 of treatment, share of white cell count): 75%; white cell count ([2]; day 11 of treatment, child, less than 300 white cells for 3 months before): 21,000; effectiveness against intracellular organisms of genus Ehrlich/Anaplasma [3]: particularly effective
O=C(O)c1cn(C2CC2)c2cc(N3CCNCC3)c(F)cc2c1=O [ciprofloxacin]	most active, and bactericidal	–
C[C@H]1c2cccc(O)c2C(=O)C2=C(O)[C@]3(O)C(=O)C(C(N)=O)=C(O)[C@@H](N(C)C)[C@@H]3[C@@H](O)[C@@H]21 [doxycycline]	most active, and bactericidal	–
O=C(N[C@H](CO)[C@H](O)c1ccc([N+](=O)[O-])cc1)C(Cl)Cl [chloramphenicol]	weakly active, but not bactericidal	–
CC1(C)S[C@@H]2[C@H](NC(=O)[C@H](N)c3ccccc3)C(=O)N2[C@H]1C(=O)O [ampicillin]	resistant	–
N[C@@H]1[C@H]2CN(c3nc4c(cc3F)c(=O)c(C(=O)O)cn4-c3ccc(F)cc3F)C[C@@H]12 [trovafloxacin]	most active, and bactericidal	–
CC[C@H]1OC(=O)[C@H](C)[C@@H](O[C@H]2C[C@@](C)(OC)[C@@H](O)[C@H](C)O2)[C@H](C)[C@@H](O[C@@H]2O[C@H](C)C[C@H](N(C)C)[C@H]2O)[C@](C)(O)C[C@@H](C)C(=O)[C@H](C)[C@@H](O)[C@]1(C)O [erythromycin]	resistant	–
imipenem-cilastatin	resistant	–
Gentamicin	weakly active, but not bactericidal	–
thrmethoprim-sulfamethoxazolem	resistant	–
CO/N=C(\C(=O)N[C@@H]1C(=O)N2C(C(=O)O)=C(CSc3nc(=O)c(O)nn3C)CS[C@H]12)c1csc(N)n1 [cefatriaxone]	resistant	–
CC[C@H]1OC(=O)[C@H](C)[C@@H](O[C@H]2C[C@@](C)(OC)[C@@H](O)[C@H](C)O2)[C@H](C)[C@@H](O[C@@H]2O[C@H](C)C[C@H](N(C)C)[C@H]2O)[C@](C)(O)C[C@@H](C)CN(C)[C@H](C)[C@@H](O)[C@]1(C)O [azrithromycin]	resistant	–
